Drawing on US20260265195A1, “SARM1 MODULATORS, PREPARATIONS, AND USES THEREOF” (SIRONAX LTD, priority 2022, published 2026), this text covers IC50 for 35 compounds.

Some results are limits rather than exact numbers.

This assay concerns the target T1, SARM1 (50-724) (Homo sapiens, UniProt Q6SZW1).
T1 construct: Purified SARM1 (50-724) with a final concentration of 2 nM
T1 sequence (Q6SZW1 50-724): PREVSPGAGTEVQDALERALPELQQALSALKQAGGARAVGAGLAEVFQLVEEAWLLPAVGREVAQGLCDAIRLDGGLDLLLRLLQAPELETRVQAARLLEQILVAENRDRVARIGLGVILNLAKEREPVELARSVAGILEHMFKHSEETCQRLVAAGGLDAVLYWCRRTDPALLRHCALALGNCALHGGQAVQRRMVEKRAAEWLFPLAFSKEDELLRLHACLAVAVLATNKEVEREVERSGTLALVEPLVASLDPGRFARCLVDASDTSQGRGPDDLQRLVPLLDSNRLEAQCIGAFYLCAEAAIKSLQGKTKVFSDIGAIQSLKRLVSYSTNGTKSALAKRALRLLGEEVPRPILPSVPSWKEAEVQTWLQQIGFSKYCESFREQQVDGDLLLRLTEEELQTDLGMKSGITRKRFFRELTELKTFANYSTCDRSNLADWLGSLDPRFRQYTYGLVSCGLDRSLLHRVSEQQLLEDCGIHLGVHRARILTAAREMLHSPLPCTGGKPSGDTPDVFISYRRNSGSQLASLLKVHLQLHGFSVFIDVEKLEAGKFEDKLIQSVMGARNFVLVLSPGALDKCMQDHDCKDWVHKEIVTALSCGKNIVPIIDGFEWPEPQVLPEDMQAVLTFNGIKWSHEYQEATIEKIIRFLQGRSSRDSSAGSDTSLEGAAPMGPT
The assay is described as follows: SARM1 (50-724) enzymatic assay (NMN-activated NAD+ hydrolysis, LC-MS/MS readout). Type of assay: biochemical. The note with it: purified SARM1 (50-724) 2 nM, 200 μM NMN activator, 100 μM NAD+ substrate, 1 h at room temperature, read-out: IC50 (SARM1 inhibitory activity). In short, it runs like this:
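NMN-activated NAD+ hydrolysis: compound pre-incubated 15 min at room temperature with 2 nM SARM1 (50-724) at 1% DMSO in DPBS; 100 μM NAD+ plus 200 μM NMN added and reacted 1 h at RT. Acetonitrile quench, LC-MS/MS readout.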
`O=C(c1nc2cc(C(F)(F)F)c(Cl)cc2[nH]1)N(CCO)c1cccc(Cl)c1Cl` [Compound 163]: the IC50 is 101 to 500 nM.
With `O=C(c1nc2cc(Cl)cc(F)c2[nH]1)N(c1cccc(F)c1Cl)C1CCS(=O)(=O)C1` (racemic) [Compound 191] the figure was ≤ 100 nM.
As for `Cc1ccnc(N(CCO)C(=O)c2nc3cc(C(F)(F)F)ccc3[nH]2)c1Cl` [Compound 138, N-(3-chloro-4-methylpyridin-2-yl)-N-(2-hydroxyethyl)-5-(trifluoromethyl)-1H-benzo[d]imidazole-2-carboxamide], the figure is 101 to 500 nM.
With `O=C(c1nc2cc(C(F)(F)F)ccc2[nH]1)N(CC(F)(F)CO)c1cc(F)cc(F)c1Cl` [Compound 218, N-(2-chloro-3,5-difluorophenyl)-N-(2,2-difluoro-3-hydroxypropyl)-5-(trifluoromethyl)-1H-benzo[d]imidazole-2-carboxamide] the figure was ≤ 100 nM; with `Cc1ccc2[nH]c(C(=O)N(C)c3cccnc3)c(CO)c2c1` [Compound 22, 3-(hydroxymethyl)-N,5-dimethyl-N-(pyridin-3-yl)-1H-indole-2-carboxamide], ≥ 1000 nM; with `O=C(c1nc2cc(C(F)(F)F)ccc2[nH]1)N(CC1CNC1)c1cccc(Cl)c1Cl` [Compound 114, N-(azetidin-3-ylmethyl)-N-(2,3-dichlorophenyl)-5-(trifluoromethyl)-1H-benzo[d]imidazole-2-carboxamide], 101 to 500 nM.
`Cc1cccc(N(C)C(=O)c2[nH]c3ccc(C)cc3c2CO)c1` [Compound 43, 3-(hydroxymethyl)-N,5-dimethyl-N-(m-tolyl)-1H-indole-2-carboxamidc]: the half-inhibitory concentration (IC50) was ≥ 1000 nM.
As for `COc1cc(OC)c2c(CO)c(C(=O)N(C)C3CCCC3)[nH]c2c1` [Compound 34, N-cyclopentyl-3-(hydroxymethyl)-4,6-dimethoxy-N-methyl-1H-indole-2-carboxamide], the figure is ≥ 1000 nM; as for `O=C(c1nc2cc(C(F)(F)F)ccc2[nH]1)N(c1cccc(Cl)c1Cl)C1CNC1` [Compound 117, N-(azetidin-3-yl)-N-(2,3-dichlorophenyl)-5-(trifluoromethyl)-1H-benzo[d]imidazole-2-carboxamide], ≥ 1000 nM.
With `Cc1cccc2[nH]c(C(=O)N(C)C3CCCC3)c(CO)c12` [Compound 21, N-cyclopenty1-3-(hydroxymethyl)-N,4-dimethyl-1H-indole-2-carboxamide], the IC50 was ≥ 1000 nM.
With `CN(C(=O)c1cc2ccccc2[nH]1)C1CCCC1` [Compound 54, N-cyclopentyl-N-methyl-1H-indole-2-carboxamide], the 50% inhibitory concentration (IC50) was ≥ 1000 nM.
With `O=C(c1nc2cc(Cl)cc(F)c2[nH]1)N(CC(F)(F)CO)c1cccc(F)c1Cl` [Compound 232, 5-chloro-N-(2-chloro-3-fluorophenyl)-N-(2,2-difluoro-3-hydroxypropyl)-7-fluoro-1H-benzo[d]imidazole-2-carboxamide] the figure was ≤ 100 nM.
As to `Cc1ccc2[nH]c(C(=O)N(C)C3CCCC3)c(CNc3cncs3)c2c1` [Compound 78, N-cyclopentyl-N,5-dimethyl-3-((thiazol-5-ylamino)methyl)-1H-indole-2-carboxamide], the concentration for half-maximal inhibition (IC50) is 101 to 500 nM.
With `Cc1ccc2[nH]c(C(=O)N(C)C3CCCC3)c(CCO)c2c1` [Compound 36, N-cyclopentyl-3-(2-hydroxyethyl)-N,5-dimethyl-1H-indole-2-carboxamide] the figure was 101 to 500 nM.
For `O=C(c1nc2cc(C3CC3)ccc2[nH]1)N(CC(F)(F)CO)c1cccc(F)c1Cl` [Compound 210], the half-inhibitory concentration (IC50) is ≤ 100 nM.
With `Cc1ccc2[nH]c(C(=O)N(C)C3CCNCC3)c(CNc3ccccn3)c2c1` [Compound 84, N,5-dimethyl-N-(piperidin-4-yl)-3-((pyridin-2-ylamino)methyl)-1H-indole-2-carboxamide] the figure was ≥ 1000 nM; with `O=C(c1nc2cc(C(F)(F)F)ccc2[nH]1)N(CCN1CC(F)(F)C1)c1cccc(Cl)c1Cl` [Compound 116, N-(2,3-dichlorophenyl)-N-(2-(3,3-difluoroazetidin-1-yl)ethyl)-5-(trifluoromethyl)-1H-benzo[d]imidazole-2-carboxamide], ≤ 100 nM.
As for `CN1CCC(N(C(=O)c2nc3cc(C(F)(F)F)ccc3[nH]2)c2cccc(F)c2Cl)C1=O` (racemic) [Compound 240, N-(2-chloro-3-fluorophenyl)-N-(1-methyl-2-oxopyrrolidin-3-yl)-5-(trifluoromethyl)-1H-benzo[d]imidazole-2-carboxamide], the figure is ≤ 100 nM.
With `O=C(c1nc2cc(C(F)(F)F)ccc2[nH]1)N(CCO)c1nccc(Cl)c1Cl` [Compound 100, N-(3,4-dichloropyridin-2-yl)-N-(2-hydroxyethyl)-5-(trifluoromethyl)-1H-benzo[d]imidazole-2-carboxamide] the figure was ≤ 100 nM.
As to `O=C(c1nc2cc(C(F)(F)F)ccc2[nH]1)N(c1cn[nH]c1)c1cccc(Cl)c1Cl` [Compound 127, N-(2,3-dichlorophenyl)-N-(1H-pyrazol-4-yl)-5-(trifluoromethyl)-1H-benzo[d]imidazole-2-carboxamide], the IC50 was ≤ 100 nM.
With `Cc1ccc2[nH]c(C(=O)N(C)C3CCCC3)c(CNc3cn[nH]c3)c2c1` [Compound 81, 3-(((1H-pyrazol-4-yl)amino)methyl)-N-cyclopentyl-N,5-dimethyl-1H-indole-2-carboxamide] the figure was ≥ 1000 nM; with `Cc1ccc2c(CO)c(C(=O)N(C)C3CCCC3)n(CC(N)=O)c2c1` [Compound 23, 1-(2-amino-2-oxoethyl)-N-cyclopentyl-3-(hydroxymethyl)-N,6-dimethyl-1H-indole-2-carboxamide], ≥ 1000 nM; with `CN=S(C)(=O)CCCN(C(=O)c1nc2cc(C(F)(F)F)ccc2[nH]1)c1cccc(F)c1Cl` (centres unmarked) [Compound 225, N-(2-chloro-3-fluorophenyl)-N-(3-(N,S-dimethylsulfonimidoyl)propyl)-5-(trifluoromethyl)-1H-benzo[d]imidazole-2-carboxamide], ≤ 100 nM.
With `CN(C(=O)c1[nH]c2ccc(F)cc2c1CO)C1CCCC1` [Compound 32, N-cyclopentyl-5-fluoro-3-(hydroxymethyl)-N-methyl-1H-indole-2-carboxamide] the figure was ≥ 1000 nM.
As for `Cc1ccc2[nH]c(C(=O)N(C)C3CCCC3)c(C#N)c2c1` [Compound 70, 3-cyano-N-cyclopentyl-N,5-dimethyl-1H-indole-2-carboxamide], the figure is 101 to 500 nM.
Regarding `O=C(c1nc2cc(C3CCCO3)ccc2[nH]1)N(CCO)c1cccc(Cl)c1Cl` (racemic) [Compound 196], the IC50 is ≤ 100 nM.
With `[2H]C([2H])([2H])N(C(=O)c1nc2cc(C(F)(F)F)ccc2[nH]1)c1cncc(Cl)c1C` [Compound 166, N-(5-chloro-4-methylpyridin-3-yl)-N-(methyl-d3)-5-(trifluoromethyl)-1H-benzo[d]imidazole-2-carboxamido] the figure was ≤ 100 nM; with `CN(C(=O)c1nc2ccccc2[nH]1)C1CCCC1` [Compound 51, N-cyclopentyl-N-methyl-1H-benzo[d]imidazole-2-carboxamide], ≥ 1000 nM; with `NC(=O)CN(C(=O)c1nc2cc(C(F)(F)F)ccc2[nH]1)c1cccc(Cl)c1Cl` [Compound 141, N-(2-amino-2-oxoethyl)-N-(2,3-dichlorophenyl)-5-(trifluoromethyl)-1H-benzo[d]imidazole-2-carboxamide], ≤ 100 nM.
With `Cc1ccc2[nH]c(C(=O)N(C)CCC(C)C)c(CNc3ccccn3)c2c1` [Compound 88, N-isopentyl-N,5-dimethyl-3-((pyridin-2-ylamino)methyl)-1H-indole-2-carboxamide] the figure was ≥ 1000 nM.
With `O=C(c1nc2cc(Cl)cc(F)c2[nH]1)N(CC(F)(F)CO)c1ccc(F)c(F)c1Cl` [Compound 233] the figure was ≤ 100 nM.
For the compound `O=C(c1nc2cc(C(O)C3CC3)ccc2[nH]1)N(CCO)c1cccc(Cl)c1Cl` (racemic) [Compound 162], the IC50 was ≥ 1000 nM.
As for `O=C(c1nc2cc(C(F)(F)F)ccc2[nH]1)N(c1cccc(F)c1Cl)C1CCS(=O)(=O)C1` (racemic) [Compound 228, N-(2-chloro-3-fluorophenyl)-N-(1,1-dioxidotetrahydrothiophen-3-yl)-5-(trifluoromethyl)-1H-benzo[d]imidazole-2-carboxamide], the figure is ≤ 100 nM.
With `O=C(c1nc2cc(C(F)(F)F)ccc2[nH]1)N(CC(F)(F)CO)c1cc(F)c(F)cc1Cl` [Compound 220, N-(2-chloro-4,5-difluorophenyl)-N-(2,2-difluoro-3-hydroxypropyl)-5-(trifluoromethyl)-1H-benzo[d]imidazole-2-carboxamide] the figure was 101 to 500 nM.
As for `Cc1ccc2[nH]c(C(=O)N(C)C3CCOCC3)c(CNc3ccccn3)c2c1` [Compound 90, N,5-dimethyl-3-((pyridin-2-ylamino)methyl)-N-(tetrahydro-2H-pyran-4-yl)-1H-indole-2-carboxamide], the IC50 is ≥ 1000 nM.
